From US8796176B2, “Pesticidal composition comprising an alpha-alkoxyphenyl acetic acid derivative and a neonicotinoid compound” (Sumitomo Chemical Company, Ltd, priority 2008, dated 2014)

Tested on: Rhizoctonia solani
Assay: Cucumber seed treatment test against Rhizoctonia solani (Test Example 4)
Format: in vivo
Settings: cucumber seeds, seventh day after dissemination
Procedure: 5: Diameter of maculation: >20 mm Incidence of disease=Σ(Evaluation index of leaves checked)×100/(Number of total leaves checked) “Equation 1” Control value=100(A−B)/A “Equation 2” A: Incidence of disease of plant in untreated area B: Incidence of disease of plant in treated area Generally, the control value expected for the case where the given two kinds of active ingredient compounds are mixed and used for the treatment, the so-called control value expectation is calculated from the following Colby's calculating equation. […] They were allowed to grow in a greenhouse while irrigated and the number of non-budding seeds was checked on the seventh day after the dissemination and the incidence of disease was calculated by Equation 4. The control value was calculated by Equation 2 based on the incidence of disease. […]

| Compound | Actual control value (compound (1b) alone 10 g/Seed 100 kg) [%] | Actual control value (clothianidin alone 200 g/Seed 100 kg) [%] |
| --- | --- | --- |
| CNC(=O)C(OC)c1ccccc1COc1cc(C)ccc1C (racemic) [(1b)] | 35 | – |
| CN/C(=N\[N+](=O)[O-])NCc1cnc(Cl)s1 [Clothianidin, clothianidin] | – | 4 |
